Consider two compounds from patent US20090170932A1, “DISINFECTANT COMPOSITIONS, METHODS AND SYSTEMS” (Tyco Healthcare Group LP, priority 2007, published 2009).

Data set [1] deals with blood coagulation. To be noted: patients; cited publications; cited from earlier work.
For data set [2], the system named is Staphylococcus aureus (organism # 25923). As to the kind of experiment: pH experiments: MIC at adjusted pH, NCCLS micro-dilution. The format is cell-based. To be noted: S. aureus. Here is the method: (§1) In order to determine MIC and MBC (minimum bactericidal concentration) a National Committee on Clinical Laboratory Standards (NCCLS) micro-dilution procedure was followed. […] In the current protocol 100 μL of MHB was mixed with 90 μL of formulation and 10 μL of log 8 organism or the highest achievable concentration. The concentration of the formulation was adjusted to obtain the required concentration in the final solution. The mixture was incubated at 37 degree C. for 16-24 hrs. After 16-24 hours the absorbance value was read at 600 nm. The obtained data was corrected by subtracting the appropriate blanks. Finally, the wells having an absorbance≧0.1 were marked + and <0.1 were marked −. The + symbol indicated growth while − symbol indicates no growth. […] Staphylococcus aureus (organism # 25923) was obtained from ATCC. […] N-acetyl cysteine (NAC) was used (Acros, Catalogue # 160280250, Lot # A0229576). A 4 wt % NAC solution in water was prepared at a pH of 4. A 4 wt % NAC solution in water was prepared at a pH of 6. […] These solutions were then serially diluted as necessary to obtain the required concentrations. […]

The test system is the same in data set [3]. Nature of the data set: pH experiments: MBC (minimum bactericidal concentration). The format is cell-based. To be noted: S. aureus. Here is the method: as §1
The test system of data set [4] is S. aureus. Nature of the data set: Checkerboard Titration (FIC index), pH<4. The format is cell-based. The settings on record: for FIC of the single component (FIC-NAC, FIC-VC): S. aureus, MIC in combination / MIC alone. Here is the method: (§2) The method used was a NCCLS micro-dilution procedure. […] The following concentrations were tested (for S. aureus see FIG. 9 and for P. aeruginosa see FIG. 7 for combinations at a pH<4): [table] Fraction Inhibitory Concentration (FIC) is defined as the MIC of the compound in combination divided by the MIC of the compound alone. If the FIC index is ≦0.5, the combination is interpreted to be synergistic; <1 but >0.5-as partially synergistic; =1 as additive; >1 but <4 as indifferent; and ≧4 as antagonistic.

Data set [5] can be described thus: Osmolarity of solutions. The format is physicochemical. The settings on record: 4 wt % (w/v) of each component in solution. The text has this:
Formulation and production of disinfectant compositions of the present disclosure are generally straightforward. […] The disinfectant solution may then be sterilized using conventional means, such as filtration and/or ultrafiltration, and other means. […] The solutions are preferably formulated using USP materials.

Data set [6] deals with P. aeruginosa. As to the kind of experiment: Checkerboard Titration (FIC index). The format is cell-based. To be noted: for FIC of the single component (FIC-NAC, FIC-VC): P. aeruginosa, MIC in combination / MIC alone. The method, then:
as §2

The test system of data set [7] is Staphylococcus aureus (organism # 25923). Nature of the data set: MIC test, NCCLS micro-dilution. The format is cell-based. To be noted: S. aureus; pH not adjusted (pH < 4); listed as VC. The method, then: (§3) The minimum concentration of a composition required to inhibit growth is known as the minimum inhibitory concentration (MIC). In order to determine MIC a National Committee on Clinical Laboratory Standards (NCCLS) micro-dilution procedure was followed. […] In the current protocol 100 μL of MHB was mixed with 90 μL of formulation and 10 μL of log 8 organism or the highest achievable concentration. The concentration of the formulation was adjusted to obtain the required concentration in the final solution. The mixture was incubated at 37 degree C. for 16-24 hrs. After 16-24 hours the absorbance value was read at 600 nm. The obtained data was corrected by subtracting the appropriate blanks. Finally, the wells having an absorbance≧0.1 were marked + and <0.1 were marked −. The + symbol indicated growth while − symbol indicates no growth. […] In cases where the positive growth controls corrected absorbance is lower than 0.5, an alternate rule is utilized which is “absorbance<than 20% of positive growth control is marked as − growth, while absorbance≧than 20% of positive growth control is marked as + growth”. Staphylococcus aureus (organism # 25923), Pseudomonas aeruginosa (Organism # 27853) and Candida Albicans (Organism # 10231) was obtained from ATCC. […] N-acetyl cysteine (NAC) was used (Acros, Catalogue # 160280250, Lot # A0229576). A 8 wt % NAC solution in water was prepared. […]
On the technique in general: Dilution methods test growth across graded concentrations, often in twofold steps.

Data set [8] has as its system Candida Albicans (Organism # 10231). As to the kind of experiment: MIC test, NCCLS micro-dilution. The format is cell-based. The settings on record: C. albicans; pH not adjusted. The method, then: as §3
Data set [9] relates to blood coagulation (clotting). As to the kind of experiment: Prothrombin Time (PT) Assay, INR. The format is biochemical. To be noted: single agent, within the tested range. Here is the method: Experiments were conducted to assess the anticoagulant capacities of NAC, Vitamin C and combinations of NAC and Vitamin C via a Prothrombin Time (PT) Assay. A PT assay (TM-4339-063) was conducted using a Coagulation Analyzer to obtain PT instead of manually recording the PT. […] INR (International Normalized Ratio) is a system established by the World Health Organization (WHO) and the International Committee on Thrombosis and Hemostasis for reporting the results of blood coagulation (clotting) tests. INR is calculated as: INR=([…] sample/PTnormal control)^ISI ISI (International Sensitivity Index) indicates the sensitivity of individual thromboplastin. […] All the PTs greater than 3× the […] 1 (normal control) were replaced with 31 seconds.

The conditions of data set [10]: in vivo; cited from earlier work.
For data set [11] the following is noted: cited from earlier work.
Where [12] appears, read: pH of 6, 2.0 wt % starting point.
Where [13] appears, read: pH=6, 2.0% (w/v) starting point.

Several values for one entry are separate records, joined by “and”; a condition that tells them apart may be missing. Equal values may be shown once. Some results are limits rather than exact numbers.

As for `O=C1O[C@H]([C@@H](O)CO)C(O)=C1O` [Vitamin C, L-ascorbic acid], the “Anti-coagulant effect (literature)” value in [1] is on record as “has not been identified as an effective anticoagulant when compared with heparin”. For the same compound, the MIC is given as 0.5 wt % in [2] (pH of 4); above 2.0 wt % in [2] (setting [12]); above 2 wt % in data set [2] (pH of 6, 2.0 wt % starting point, listed as VC); 0.5 % (w/v) in data set [2] (pH=4); > 2.0 % (w/v) in data set [2] (setting [13]); 0.25 wt % in [7]. In [8], this compound came in with an MIC above 8 wt %. Besides, the MBC in data set [3] (pH of 4) is 1.0 wt %; in data set [3] (pH=4), 1.0 % (w/v). Also, the results for the “FIC of the single component (FIC-NAC, FIC-VC)” value in data set [4] and in data set [6] were 0.4 and 0.35, respectively. Moreover, in data set [5], the osmolarity amounted to 223 mOsm/Kg. For the same compound, the “Change of INR with increase in concentration” value in data set [9] is “no significant increase in INR”.
For `CC(=O)N[C@@H](CS)C(=O)O` [NAC, N-acetyl-L-cysteine], the “Anti-coagulant effect (literature)” value in [1] is on record as “some anti-coagulant effect”. Moreover, in [10], the “dose shown to be safe for administration to humans” value is reported as 1200 mg/day. Further, the MIC was 2.0 wt % and 2 wt % in data set [2] (pH of 4); above 2 wt % in data set [2] (setting [12]); 2.0 % (w/v) in data set [2] (pH=4); > 2.0 % (w/v) in data set [2] (setting [13]). Moreover, the figures for the MBC in data set [3] (pH of 4) and in data set [3] (pH=4) were 2.0 wt % and 2.0 % (w/v), respectively. The “MIC-NAC / MIC-VC (MIC of the component in combination with the other)” value in [4] (S. aureus in MHB) and in [6] (P. aeruginosa in MHB) was 0.25 % (w/v) each time. In addition, the “FIC of the single component (FIC-NAC, FIC-VC)” value came out at 0.4 in [4] and 0.35 in data set [6]. Also, the osmolarity in data set [5] turned out to be 237 mOsm/Kg. The “Solubility in chloroform and ether” value in data set [11] is on record as “practically insoluble”. Besides, the “Change of INR with increase in concentration” value in data set [9] was “increase in INR”.
